From patent US20210290648A1, “Potentiation of B-Lactam Antibiotics and B-Lactam/B-Lactamase Inhibitor Combinations Against Multidrug and Extensively Drug-Resistant Pseudomonas Aeruginosa Using Non-Ribosomal Tobramycin-Cyclam Conjugates” (University of Manitoba, priority 2018, published 2021)

What was measured:
[1] = tested on: PA 101885; assay: Checkerboard combination study / MIC; format: cell-based, Pseudomonas aeruginosa
[2] = tested on: PA 262; assay: Checkerboard combination study / MIC; format: cell-based, Pseudomonas aeruginosa
[3] = tested on: PA 100036; assay: Checkerboard combination study / MIC; format: cell-based, Pseudomonas aeruginosa
[4] = tested on: PA 91433; assay: Checkerboard combination study / MIC; format: cell-based, Pseudomonas aeruginosa
[5] = tested on: PA 260; assay: Checkerboard combination study / MIC; format: cell-based, Pseudomonas aeruginosa
[6] = tested on: PA 259; assay: Checkerboard combination study / MIC; format: cell-based, Pseudomonas aeruginosa
[7] = tested on: PA 114228; assay: Checkerboard combination study / MIC; format: cell-based, Pseudomonas aeruginosa
[8] = tested on: PA 264; assay: Checkerboard combination study / MIC; format: cell-based, Pseudomonas aeruginosa
[9] = tested on: Galleria mellonella larvae; assay: Galleria mellonella tolerability study; settings: 100 mg/kg and 200 mg/kg injected alone; after 48 h
Procedure: In vitro and in vivo discordances have been observed in antimicrobial chemotherapy, thus, therapeutic efficacy may not necessarily be reliably extrapolated based on in vitro data alone. […] Colistin (100 mg/kg), an antibiotic well known for its toxicity towards eukaryotes, served as a positive control for this experiment while PBS served as negative control. […] Survivability was scored for a total of 4 days.
In vivo larvae-infection model. In vivo synergistic effects were determined using Galleria mellonella infection model, as previously described (20). Briefly, worms were purchased from The Worm Lady® Live Feeder (ON, Canada), stored in their natural habitat at 16° C., and used within 10 days of delivery. The worms (average weight of 250 mg) were used for tolerability and efficacy studies. Tolerability study was performed by injecting 10 μL of antimicrobial agents only at concentrations equivalent to 100 mg/kg or 200 mg/kg. The worms (ten in each group) were incubated at 37° C. and monitored for 96 h. […] Overnight grown culture of respective MDR P. aeruginosa isolate was standardized to 0.5 McFarland standard and diluted in PBS to a final concentration of […]. 10 μL of this solution (5 CFU) was injected into each worm and incubated for 3 h at 37° C. […] Worms treated with 10 μL PBS or high concentrations of test antibiotics served as negative and positive control, respectively. The worms were incubated at 37° C. in Petri dishes lined with filter paper and scored for survivability every 6 h for up to 48 h. This experiment was repeated to give a total of thirty worms (n=30) in each case. Survival data curves were plotted using Kaplan-Meier survival analysis.

[10] = tested on: PA 101243; assay: Checkerboard combination study / MIC; format: cell-based, Pseudomonas aeruginosa; settings: PA 101243
[11] = tested on: MDR/XDR P. aeruginosa clinical isolates; assay: MIC and checkerboard, panel of clinical isolates; format: cell-based, Pseudomonas aeruginosa; settings: antibiotic + compound 2 (8.7 μM); resistant P. aeruginosa isolates
[12] = MIC of antibiotic combined with compound 2

In the case of “5-O-(Octylcyclam)-tobramycin.9TFA [Compound 2]”, the “MICCombination (2)” value ([1]; MIC of 2 combined with AZT) is reported as 16 µg/mL, the “MICCombination (2)” value ([1]; MIC of 2 combined with CAZ) is reported as 8 µg/mL and the “MICCombination (2)” value ([1]; MIC of 2 combined with CEF) is reported as 16 µg/mL. The “MICCombination (2)” value ([1]; MIC of 2 combined with DOR) was 4 µg/mL, the “MICCombination (2)” value ([1]; MIC of 2 combined with MER) was 8 µg/mL and the “MICCombination (2)” value ([1]; MIC of 2 combined with PIP) was 16 µg/mL. The FIC2 ([1]; with AZT) was under 0.0625, the FIC2 ([1]; with CAZ) was under 0.0313 and the FIC2 ([1]; with CEF) was under 0.0625. For the same compound, the FIC2 ([1]; with DOR) was under 0.0156, the FIC2 ([1]; with MER) was under 0.0313 and the FIC2 ([1]; with PIP) was under 0.0625. For the same compound, the “MICCombination (2)” value ([2]; MIC of 2 combined with AZT) was 8 µg/mL, the “MICCombination (2)” value ([2]; MIC of 2 combined with CAZ) was 16 µg/mL and the “MICCombination (2)” value ([2]; MIC of 2 combined with CEF) was 16 µg/mL. For the same compound, the “MICCombination (2)” value ([2]; MIC of 2 combined with DOR) was 16 µg/mL, the “MICCombination (2)” value ([2]; MIC of 2 combined with MER) was 16 µg/mL and the “MICCombination (2)” value ([2]; MIC of 2 combined with PIP) was 4 µg/mL. It also gave an FIC2 ([2]; with AZT) of under 0.0313, an FIC2 ([2]; with CAZ) of under 0.0625 and an FIC2 ([2]; with CEF) of under 0.0625. The FIC2 ([2]; with DOR) was under 0.0625, the FIC2 ([2]; with MER) was under 0.0625 and the FIC2 ([2]; with PIP) was under 0.0156. The “MICCombination (2)” value ([3]; MIC of 2 combined with AZT) was 8 µg/mL, the “MICCombination (2)” value ([3]; MIC of 2 combined with CAZ) was 8 µg/mL and the “MICCombination (2)” value ([3]; MIC of 2 combined with CEF) was 16 µg/mL. The “MICCombination (2)” value ([3]; MIC of 2 combined with DOR) was 16 µg/mL, the “MICCombination (2)” value ([3]; MIC of 2 combined with MER) was 2 µg/mL and the “MICCombination (2)” value ([3]; MIC of 2 combined with PIP) was 16 µg/mL. It also gave an FIC2 ([3]; with AZT) of under 0.0313, an FIC2 ([3]; with CAZ) of under 0.0313 and an FIC2 ([3]; with CEF) of under 0.0625. It also gave an FIC2 ([3]; with DOR) of under 0.0625, an FIC2 ([3]; with MER) of under 0.0078 and an FIC2 ([3]; with PIP) of under 0.0625. For the same compound, the “MICCombination (2)” value ([4]; MIC of 2 combined with AZT, PA 91433) was 16 µg/mL, the “MICCombination (2)” value ([4]; MIC of 2 combined with CAZ, PA 91433) was 0.25 µg/mL and the “MICCombination (2)” value ([4]; MIC of 2 combined with CEF, PA 91433) was 16 µg/mL. For the same compound, the “MICCombination (2)” value ([4]; MIC of 2 combined with DOR, PA 91433) was 8 µg/mL, the “MICCombination (2)” value ([4]; MIC of 2 combined with MER, PA 91433) was 4 µg/mL and the potentiation of meropenem ([4]; by compound 2, colistin-resistant clinical isolate PA91433) was 64 fold. The FIC2 ([4]; with AZT, PA 91433) was under 0.0625, the FIC2 ([4]; with CAZ, PA 91433) was under 0.0010 and the FIC2 ([4]; with CEF, PA 91433) was under 0.0625. The FIC2 ([4]; with DOR, PA 91433) was under 0.0313, the FIC2 ([4]; with MER, PA 91433) was under 0.0156 and the “MICCombination (2)” value ([5]; MIC of 2 combined with AZT) was 16 µg/mL. For the same compound, the “MICCombination (2)” value ([5]; MIC of 2 combined with CAZ) was 4 µg/mL, the “MICCombination (2)” value ([5]; MIC of 2 combined with CEF) was 8 µg/mL and the “MICCombination (2)” value ([5]; MIC of 2 combined with DOR) was 8 µg/mL. For the same compound, the “MICCombination (2)” value ([5]; MIC of 2 combined with MER) was 8 µg/mL, the “MICCombination (2)” value ([5]; MIC of 2 combined with PIP) was 16 µg/mL and the FIC2 ([5]; with AZT) was under 0.0625. For the same compound, the FIC2 ([5]; with CAZ) was under 0.0156, the FIC2 ([5]; with CEF) was under 0.0313 and the FIC2 ([5]; with DOR) was under 0.0313. For the same compound, the FIC2 ([5]; with MER) was under 0.0313, the FIC2 ([5]; with PIP) was under 0.0625 and the “MICCombination (2)” value ([6]; MIC of 2 combined with AZT) was 16 µg/mL. For the same compound, the “MICCombination (2)” value ([6]; MIC of 2 combined with CAZ) was 16 µg/mL, the “MICCombination (2)” value ([6]; MIC of 2 combined with CEF) was 16 µg/mL and the “MICCombination (2)” value ([6]; MIC of 2 combined with MER) was 16 µg/mL. For the same compound, the “MICCombination (2)” value ([6]; MIC of 2 combined with PIP) was 1 µg/mL, the FIC2 ([6]; with AZT) was under 0.0625 and the FIC2 ([6]; with CAZ) was under 0.0625. It also gave an FIC2 ([6]; with CEF) of under 0.0625, an FIC2 ([6]; with MER) of under 0.0625 and an FIC2 ([6]; with PIP) of under 0.0039. The “MICCombination (2)” value ([7]; MIC of 2 combined with AZT) was 4 µg/mL, the “MICCombination (2)” value ([7]; MIC of 2 combined with CAZ) was 16 µg/mL and the “MICCombination (2)” value ([7]; MIC of 2 combined with CEF) was 4 µg/mL. For the same compound, the “MICCombination (2)” value ([7]; MIC of 2 combined with DOR) was 4 µg/mL, the “MICCombination (2)” value ([7]; MIC of 2 combined with MER) was 8 µg/mL and the “MICCombination (2)” value ([7]; MIC of 2 combined with PIP) was 0.5 µg/mL. For the same compound, the FIC2 ([7]; with AZT) was under 0.0156, the FIC2 ([7]; with CAZ) was under 0.0625 and the FIC2 ([7]; with CEF) was under 0.0156. For the same compound, the FIC2 ([7]; with DOR) was under 0.0156, the FIC2 ([7]; with MER) was under 0.0313 and the FIC2 ([7]; with PIP) was under 0.0020. The “MICCombination (2)” value ([8]; MIC of 2 combined with AZT) was 8 µg/mL, the “MICCombination (2)” value ([8]; MIC of 2 combined with CAZ) was 8 µg/mL and the “MICCombination (2)” value ([8]; MIC of 2 combined with CEF) was 16 µg/mL. The “MICCombination (2)” value ([8]; MIC of 2 combined with DOR) was 4 µg/mL, the “MICCombination (2)” value ([8]; MIC of 2 combined with MER) was 4 µg/mL and the “MICCombination (2)” value ([8]; MIC of 2 combined with PIP) was 4 µg/mL. The FIC2 ([8]; with AZT) was under 0.0313, the FIC2 ([8]; with CAZ) was under 0.0313 and the FIC2 ([8]; with CEF) was under 0.0625. It also gave an FIC2 ([8]; with DOR) of under 0.0156, an FIC2 ([8]; with MER) of under 0.0156 and an FIC2 ([8]; with PIP) of under 0.0156. The survival of larvae [9] was 100%, the “MICCombination (2)” value ([10]; MIC of 2 combined with AZT) was 2 µg/mL and the “MICCombination (2)” value ([10]; MIC of 2 combined with CAZ) was 1 µg/mL. The “MICCombination (2)” value ([10]; MIC of 2 combined with CEF) was 0.25 µg/mL, the “MICCombination (2)” value ([10]; MIC of 2 combined with DOR) was 0.25 µg/mL and the “MICCombination (2)” value ([10]; MIC of 2 combined with MER) was 0.5 µg/mL. The “MICCombination (2)” value ([10]; MIC of 2 combined with PIP) was 16 µg/mL, the FIC2 ([10]; with AZT) was under 0.0078 and the FIC2 ([10]; with CAZ) was under 0.0039. The FIC2 ([10]; with CEF) was under 0.0010, the FIC2 ([10]; with DOR) was under 0.0010 and the FIC2 ([10]; with MER) was under 0.0020. The FIC2 ([10]; with PIP) was under 0.0625.
For `CC(C)(O/N=C(\C(=O)N[C@@H]1C(=O)N2C(C(=O)[O-])=C(C[n+]3ccccc3)CS[C@H]12)c1csc(N)n1)C(=O)O` [Ceftazidime], the “MICCombination (antibiotic)” value [1, 12] was 1 µg/mL, the FICI ([1]; antibiotic + compound 2) was under 0.16 and the MICAntibiotic ([1]; antibiotic alone) was 8 µg/mL. The “MICCombination (antibiotic)” value [2, 12] was 4 µg/mL, the FICI ([2]; antibiotic + compound 2) was under 0.31 and the MICAntibiotic ([2]; antibiotic alone) was 16 µg/mL. For the same compound, the FICAntibiotic ([2]; with compound 2) was 0.250, the “MICCombination (antibiotic)” value [3, 12] was 2 µg/mL and the FICI ([3]; antibiotic + compound 2) was under 0.28. The MICAntibiotic ([3]; antibiotic alone) was 8 µg/mL, the FICAntibiotic ([3]; with compound 2) was 0.250 and the “MICCombination (antibiotic)” value ([4]; MIC of antibiotic combined with compound 2, PA 91433) was 512 µg/mL. It also gave an FICI ([4]; antibiotic + compound 2, PA 91433) of under 0.50, an MICAntibiotic ([4]; antibiotic alone, PA 91433) of 1024 µg/mL and an FICAntibiotic ([4]; with compound 2, PA 91433) of 0.500. The “MICCombination (antibiotic)” value [5, 12] was 16 µg/mL, the FICI ([5]; antibiotic + compound 2) was under 0.52 and the MICAntibiotic ([5]; antibiotic alone) was 32 µg/mL. The FICAntibiotic ([5]; with compound 2) was 0.500, the “MICCombination (antibiotic)” value [6, 12] was 64 µg/mL and the FICI ([6]; antibiotic + compound 2) was under 0.19. The MICAntibiotic ([6]; antibiotic alone) was 512 µg/mL, the “MICCombination (antibiotic)” value [7, 12] was 1 µg/mL and the FICI ([7]; antibiotic + compound 2) was under 0.19. For the same compound, the MICAntibiotic ([7]; antibiotic alone) was 8 µg/mL, the “MICCombination (antibiotic)” value [8, 12] was 32 µg/mL and the FICI ([8]; antibiotic + compound 2) was under 0.28. For the same compound, the MICAntibiotic ([8]; antibiotic alone) was 128 µg/mL, the FICAntibiotic ([8]; with compound 2) was 0.250 and the survival of larvae [9] was 100%. The “MICCombination (antibiotic)” value [10, 12] was 8 µg/mL, the FICI ([10]; antibiotic + compound 2) was under 0.13 and the MICAntibiotic ([10]; antibiotic alone) was 64 µg/mL. For the same compound, the “resistant isolates reaching CLSI clinical breakpoint” value [11] was “three out of six”.
